Laboratory results: ChEMBL document CHEMBL1201862, “PubChem BioAssay data set” (2004)
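Each compound was tested at five concentrations against cells in 96-well plates for 48 hours. GI50 = concentration required for 50% inhibition of growth.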 The source made the active and inactive calls. Rule as the data show it: active = GI50 up to about 1.1 µM and inactive = higher.

Key:
Test in all cases: DTP human tumour cell line panel, 48 h
SN12C = test system: SN12C
SF-268 = test system: SF-268
RPMI-8226 = test system: RPMI-8226
K562 = test system: K562
KM12 = test system: KM12
HCT-116 = test system: HCT-116
SNB-19 = test system: SNB-19
HCT-15 = test system: HCT-15
DMS-114 = test system: DMS-114
U-251 = test system: U-251
OVCAR-3 = test system: OVCAR-3
NCI-H522 = test system: NCI-H522
SR = test system: SR
SF-295 = test system: SF-295
IGROV-1 = test system: IGROV-1
UO-31 = test system: UO-31
HCC 2998 = test system: HCC 2998
NCI-H460 = test system: NCI-H460

Row | SMILES | GI50 (SN12C) | GI50 (SF-268) | GI50 (RPMI-8226) | GI50 (K562) | GI50 (KM12) | GI50 (HCT-116) | GI50 (SNB-19) | GI50 (HCT-15) | GI50 (DMS-114) | GI50 (U-251) | GI50 (OVCAR-3) | GI50 (NCI-H522) | GI50 (SR) | GI50 (SF-295) | GI50 (IGROV-1) | GI50 (UO-31) | GI50 (HCC 2998) | GI50 (NCI-H460)
1 | CCOC(=O)/C(=C/c1ccc(C(=O)OC)cc1)N(CC)CC | 70.8 µM (inactive) | 40.1 µM (inactive) | 42.5 µM (inactive) | 26.2 µM (inactive) | 41.3 µM (inactive) | 37.2 µM (inactive) | 54.5 µM (inactive) | 33.3 µM | 32.3 µM (inactive) | 42 µM (inactive) | 22.4 µM (inactive) | 37.8 µM (inactive) | 47.9 µM (inactive) | > 10 µM (inactive) | > 100 µM (inactive) | 37.2 µM (inactive) | 99.5 µM (inactive) | –
2 | Clc1ccc(-c2c(C3=NCCN3)nnn2-c2ccc(Cl)cc2)cc1 | 71.4 µM (inactive) | 32.2 µM (inactive) | 16.7 µM (inactive) | 18 µM (inactive) | 19.8 µM (inactive) | 15 µM (inactive) | 29.4 µM (inactive) | 30.1 µM | 16.4 µM (inactive) | 20.5 µM (inactive) | 48.9 µM (inactive) | 16 µM (inactive) | 13.4 µM (inactive) | 19.5 µM (inactive) | 56 µM (inactive) | 14.4 µM (inactive) | 17.1 µM (inactive) | 14.8 µM (inactive)
3 | CCN(CC)C(=O)c1cccc2c(OC)ccc(OC)c12 | > 100 µM (inactive) | > 100 µM (inactive) | > 100 µM (inactive) | > 100 µM (inactive) | > 100 µM (inactive) | > 100 µM (inactive) | > 100 µM (inactive) | > 100 µM | > 100 µM (inactive) | > 100 µM (inactive) | > 100 µM (inactive) | > 100 µM (inactive) | > 100 µM (inactive) | > 100 µM (inactive) | > 100 µM (inactive) | > 100 µM (inactive) | > 100 µM (inactive) | > 100 µM (inactive)
4 | CC/C(=N/O)c1ccc2[nH]c3c(C)cc([N+](=O)[O-])c(C)c3c2c1 | 76.2 µM (inactive) | 61.4 µM (inactive) | 52.7 µM (inactive) | 20.1 µM (inactive) | 37.4 µM (inactive) | 41.8 µM (inactive) | > 100 µM (inactive) | 51.1 µM | > 100 µM (inactive) | – | 36.1 µM (inactive) | 22.9 µM (inactive) | 24.4 µM (inactive) | 52 µM (inactive) | – | 57.8 µM (inactive) | 83.8 µM (inactive) | 39.2 µM (inactive)
5 | CC#CC(OCC)(OCC)OCC | > 100 µM (inactive) | > 100 µM (inactive) | > 100 µM (inactive) | > 100 µM (inactive) | > 100 µM (inactive) | > 100 µM (inactive) | > 100 µM (inactive) | 39.1 µM | 25.8 µM (inactive) | > 100 µM (inactive) | > 100 µM (inactive) | 53.2 µM (inactive) | > 100 µM (inactive) | > 100 µM (inactive) | > 100 µM (inactive) | > 100 µM (inactive) | > 100 µM (inactive) | 81.8 µM (inactive)
6 | N#CCCN(c1ccc(/C=N/c2ccccc2Cl)cc1)S(=O)(=O)c1ccccc1 | > 100 µM (inactive) | > 100 µM (inactive) | > 100 µM (inactive) | > 100 µM (inactive) | > 100 µM (inactive) | > 100 µM (inactive) | > 100 µM (inactive) | > 100 µM | > 100 µM (inactive) | > 100 µM (inactive) | > 100 µM (inactive) | > 100 µM (inactive) | > 100 µM (inactive) | > 100 µM (inactive) | > 100 µM (inactive) | > 100 µM (inactive) | > 100 µM (inactive) | > 100 µM (inactive)
7 | N#CC(Sc1ccccc1)C(N)=O (configuration not stated) | > 100 µM (inactive) | > 100 µM (inactive) | > 100 µM (inactive) | > 100 µM (inactive) | > 100 µM (inactive) | > 100 µM (inactive) | > 100 µM (inactive) | > 100 µM | > 100 µM (inactive) | > 100 µM (inactive) | > 100 µM (inactive) | > 100 µM (inactive) | > 100 µM (inactive) | > 100 µM (inactive) | > 100 µM (inactive) | > 100 µM (inactive) | > 100 µM (inactive) | > 10 µM (inactive)
8 | C/C(=C\Cc1cc(O)ccc1O)CCc1c(C)c(O)c(O)c(C=O)c1C [PANICEIN C] | 26.7 µM (inactive) | 27 µM (inactive) | 17.4 µM (inactive) | > 100 µM (inactive) | 20.3 µM (inactive) | 19.1 µM (inactive) | 35.2 µM (inactive) | 31.4 µM | 18 µM (inactive) | 18.6 µM (inactive) | 21.2 µM (inactive) | 5.24 µM (inactive) | 7.38 µM (inactive) | 25.4 µM (inactive) | 17.1 µM (inactive) | 28.2 µM (inactive) | 47.9 µM (inactive) | 23.8 µM (inactive)
9 | COc1cccc(-c2cc(O)c3cc4c(cc3n2)OCO4)c1 | 0.294 µM (active) | 0.731 µM (active) | 0.492 µM (active) | 0.0446 µM (active) | 0.0502 µM (active) | 0.0902 µM (active) | 0.109 µM (active) | 0.118 µM | 0.232 µM (active) | 0.121 µM (active) | 0.038 µM (active) | 0.0238 µM (active) | 0.169 µM (active) | 0.0818 µM (active) | 0.366 µM (active) | 0.182 µM (active) | 0.182 µM (active) | 0.142 µM (active)
10 | O=C(CCc1cc(-c2ccccc2)[nH]c(=S)n1)Nc1ccccc1[N+](=O)[O-] | > 100 µM (inactive) | > 100 µM (inactive) | > 100 µM (inactive) | > 100 µM (inactive) | > 100 µM (inactive) | > 100 µM (inactive) | > 100 µM (inactive) | > 100 µM | > 100 µM (inactive) | > 100 µM (inactive) | > 100 µM (inactive) | > 100 µM (inactive) | > 100 µM (inactive) | > 100 µM (inactive) | > 100 µM (inactive) | > 100 µM (inactive) | > 100 µM (inactive) | > 100 µM (inactive)
